Experiments:
KAI3 (IL-2 2.5 ng/mL) [1] = assay: drug sensitivity score (DSS) (DSS units); higher = more sensitive; extreme values may be limits of the assay; conditions: 72 h
[2] = test system: normal primary NK cells, pool 1 (3 donors), resting (IL-2 0 ng/mL); assay: as above; conditions: 72 h
[3] = test system: normal primary NK cells, pool 1 (3 donors) (IL-2 2.5 ng/mL); assay: as above; conditions: 72 h
[4] = test system: normal primary NK cells, pool 2 (3 donors) (IL-2 2.5 ng/mL); assay: as above; conditions: 72 h
IMC-1 (IL-2 20 ng/mL) [5] = assay: as above; conditions: 72 h
[6] = test system: normal primary NK cells, pool 3 (3 donors) (IL-2 2.5 ng/mL); assay: as above; conditions: 72 h
NK-YS (IL-2 2.5 ng/mL) [7] = assay: as above; conditions: 72 h
YT (IL-2 2.5 ng/mL) [8] = assay: as above; conditions: 72 h
NK-92 (IL-2 2.5 ng/mL) [9] = assay: as above; conditions: 72 h
KHYG-1 (IL-2 2.5 ng/mL) [10] = assay: as above; conditions: 72 h
NKL (IL-2 2.5 ng/mL) [11] = assay: as above; conditions: 72 h
DERL-7 (IL-2 2.5 ng/mL) [12] = assay: as above; conditions: 72 h
SNK-6 (IL-2 2.5 ng/mL) [13] = assay: as above; conditions: 72 h
[14] = test system: normal NK cells expanded with K562-aAPC; assay: as above; conditions: 72 h; IL-2 2.5 ng/mL
Method: (§1)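 Drug sensitivity and resistance testing on K562-aAPC-expanded normal NK cells: 5 concentrations (10-fold steps over a 10,000-fold range), 72 h at 37 °C, viability by CellTiter-Glo normalised to DMSO and benzethonium chloride controls; DSS from the fitted curve.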

KAI3 (IL-2 2.5 ng/mL) [15] = assay: percent inhibition of viability; higher = more inhibition; conditions: 72 h
[16] = test system: normal primary NK cells, pool 1 (3 donors), resting (IL-2 0 ng/mL); assay: as above; conditions: 72 h
[17] = test system: normal primary NK cells, pool 1 (3 donors) (IL-2 2.5 ng/mL); assay: as above; conditions: 72 h
[18] = test system: normal primary NK cells, pool 2 (3 donors) (IL-2 2.5 ng/mL); assay: as above; conditions: 72 h
IMC-1 (IL-2 20 ng/mL) [19] = assay: as above; conditions: 72 h
[20] = test system: normal primary NK cells, pool 3 (3 donors) (IL-2 2.5 ng/mL); assay: as above; conditions: 72 h
NK-YS (IL-2 2.5 ng/mL) [21] = assay: as above; conditions: 72 h
YT (IL-2 2.5 ng/mL) [22] = assay: as above; conditions: 72 h
NK-92 (IL-2 2.5 ng/mL) [23] = assay: as above; conditions: 72 h
KHYG-1 (IL-2 2.5 ng/mL) [24] = assay: as above; conditions: 72 h
NKL (IL-2 2.5 ng/mL) [25] = assay: as above; conditions: 72 h
DERL-7 (IL-2 2.5 ng/mL) [26] = assay: as above; conditions: 72 h
SNK-6 (IL-2 2.5 ng/mL) [27] = assay: as above; conditions: 72 h
[28] = test system: normal NK cells expanded with K562-aAPC; assay: as above; conditions: 72 h, IL-2 2.5 ng/mL
Method: as §1

CN(c1ccccc1CNc1nc(Nc2ccc3c(c2)CC(=O)N3)ncc1C(F)(F)F)S(C)(=O)=O (max concentration tested 10000 nM)
Conditions | drug sensitivity score
DERL-7 (IL-2 2.5 ng/mL) [12] | 14.4
IMC-1 (IL-2 20 ng/mL) [5] | 11.1
KAI3 (IL-2 2.5 ng/mL) [1] | 9.97
KHYG-1 (IL-2 2.5 ng/mL) [10] | 14.9
NK-92 (IL-2 2.5 ng/mL) [9] | 8.85
NK-YS (IL-2 2.5 ng/mL) [7] | 11.6
NKL (IL-2 2.5 ng/mL) [11] | 13.3
SNK-6 (IL-2 2.5 ng/mL) [13] | 5.93
YT (IL-2 2.5 ng/mL) [8] | 9.64
[2] | 3.72
[3] | 10.5
[4] | 8.64
[6] | 8.12
[14] | 12.4

percent inhibition of viability [%]
Conditions | 1 nM | 10 nM | 100 nM | 1000 nM | 10000 nM
DERL-7 (IL-2 2.5 ng/mL) [26] | -11.5 | 1.19 | -8.22 | 78.2 | 101
IMC-1 (IL-2 20 ng/mL) [19] | -8.05 | -9.43 | -5.71 | 42.5 | 100
KAI3 (IL-2 2.5 ng/mL) [15] | 2.15 | -4.73 | -2.81 | 30.6 | 106
KHYG-1 (IL-2 2.5 ng/mL) [24] | 3.44 | -1.15 | 1.69 | 81.4 | 109
NK-92 (IL-2 2.5 ng/mL) [23] | -16.5 | -24 | -36 | 20.4 | 108
NK-YS (IL-2 2.5 ng/mL) [21] | -1.08 | -5.55 | -3.8 | 48.1 | 106
NKL (IL-2 2.5 ng/mL) [25] | -5.61 | -8.98 | 4.68 | 65.6 | 109
SNK-6 (IL-2 2.5 ng/mL) [27] | -0.86 | -15.1 | -15.1 | 15.3 | 64.4
YT (IL-2 2.5 ng/mL) [22] | 0.31 | -4.2 | -5.3 | 27.2 | 109
[16] | -21.8 | -18.3 | -4.27 | -35.7 | 91.4
[17] | 4.57 | -5.98 | 14.5 | 42.7 | 99.6
[18] | -24.5 | -16.5 | -8.34 | 20.1 | 98.1
[20] | -4.56 | -2.11 | -3.97 | 15.6 | 100
[28] | -7.88 | -4.41 | -2.88 | 58 | 101

Cc1[nH]c2ccccc2c1CCNCc1ccc(/C=C/C(=O)NO)cc1 [Panobinostat] (max concentration tested 1000 nM)
Conditions | drug sensitivity score
DERL-7 (IL-2 2.5 ng/mL) [12] | 23
IMC-1 (IL-2 20 ng/mL) [5] | 18.3
KAI3 (IL-2 2.5 ng/mL) [1] | 26
KHYG-1 (IL-2 2.5 ng/mL) [10] | 21.6
NK-92 (IL-2 2.5 ng/mL) [9] | 22.5
NK-YS (IL-2 2.5 ng/mL) [7] | 21
NKL (IL-2 2.5 ng/mL) [11] | 25.2
SNK-6 (IL-2 2.5 ng/mL) [13] | 22.1
YT (IL-2 2.5 ng/mL) [8] | 20.1
[2] | 24.6
[3] | 22.3
[4] | 24.6
[6] | 22.3
[14] | 22.6

percent inhibition of viability [%]
Conditions | 0.1 nM | 1 nM | 10 nM | 100 nM | 1000 nM
DERL-7 (IL-2 2.5 ng/mL) [26] | -11.8 | -4.71 | 36.5 | 100 | 100
IMC-1 (IL-2 20 ng/mL) [19] | -2.07 | -6.63 | 2.44 | 100 | 100
KAI3 (IL-2 2.5 ng/mL) [15] | 4.1 | 14.2 | 61.8 | 101 | 101
KHYG-1 (IL-2 2.5 ng/mL) [24] | -7.12 | -8.38 | 22.6 | 101 | 101
NK-92 (IL-2 2.5 ng/mL) [23] | -5.27 | -2.71 | 34 | 98.1 | 101
NK-YS (IL-2 2.5 ng/mL) [21] | -8.83 | -9.94 | 19.8 | 97.1 | 98.8
NKL (IL-2 2.5 ng/mL) [25] | -1.46 | 1.8 | 61.1 | 101 | 100
SNK-6 (IL-2 2.5 ng/mL) [27] | -14.8 | 4.53 | 31.4 | 98.9 | 99.6
YT (IL-2 2.5 ng/mL) [22] | 0.21 | -1.12 | 12.8 | 101 | 98.4
[16] | -10.7 | 2.83 | 67 | 89.2 | 90.8
[17] | 0.27 | -4.7 | 33.9 | 97 | 97.5
[18] | -7.26 | -4.93 | 64.8 | 94.5 | 94.9
[20] | -7.01 | -2.67 | 31.6 | 97.8 | 98.5
[28] | 0.2 | 2.99 | 33.4 | 99.8 | 99.8

Source: the supplement of paper PMC5908809
